From patent US4321265A, “7α-Methoxycephalosporins” (Toyama Chemical Co., Ltd., priority 1977, dated 1982)
≈ marks a conversion by molar mass, not a printed value.

How the values were obtained:
Assay in all cases: Minimum inhibitory concentration (MIC), Heart Infusion agar
Type in all cases: cell-based
Ser. marcescens W-35 = conditions: Serratia marcescens, W35, 20 h, Ser. marcescens W-35; 10^6 cells/ml; 20 hours, 37° C. (Table 1); read-out: minimum inhibitory concentration (MIC)
Experimental: (§1) Antibacterial activities of the representative compounds (Ib) of the 7α-methoxycephalosporins according to this invention are shown in Table 1. [drawing 20]
The figures given in Table 1 represent the minimum inhibitory concentration (MIC in mcg/ml) of each compound, which was determined according to the method described in "Chemotherapy (Society of Chemotherapy, Japan), Vol. 16, 98-99 (1968)": A culture obtained by cultivating the test bacterium in a Heart Infusion broth (Eiken Kagaku Co.) was inoculated into a Heart Infusion agar medium (Eiken Kagaku Co.). After 20 hours of the incubation at 37° C., the growth of the bacterium was inspected to determine the minimum inhibitory concentration (MIC in mcg/ml). […]
(§2) (1) Minimum inhibitory concentration (MIC in mcg/ml).

Ent. cloacae IID977 = conditions: Enterobacter cloacae; Ent. cloacae IID977; 10^6 cells/ml; 20 hours, 37° C.; read-out: minimum inhibitory concentration (MIC)
Experimental: as §1
(§3) The figures given in Table 1 represent the minimum inhibitory concentration (MIC in mcg/ml) of each compound, which was determined according to the method described in "Chemotherapy (Society of Chemotherapy, Japan), Vol. 16, 98-99 (1968)": A culture obtained by cultivating the test bacterium in a Heart Infusion broth (Eiken Kagaku Co.) was inoculated into a Heart Infusion agar medium (Eiken Kagaku Co.). After 20 hours of the incubation at 37° C., the growth of the bacterium was inspected to determine the minimum inhibitory concentration (MIC in mcg/ml). The inoculation rate of the bacterium was 10^4 cells/plate (10^6 cells/ml).
as §2

[1] = system: C. freundii GN-346 (Cephalosporinase-producing bacterium); conditions: Citrobacter freundii, GN346; C. freundii GN-346; 10^6 cells/ml; 20 hours, 37° C.; read-out: minimum inhibitory concentration (MIC)
Experimental: as §1, §3, §2

Klebsiella spp. Y-72 = conditions: SPP.Y72; Klebsiella spp. Y-72; 10^6 cells/ml; 20 hours, 37° C.; read-out: minimum inhibitory concentration (MIC)
Experimental: as §1, §3, §2

K. pneumoniae Y-50 = conditions: Klebsiella pneumoniae, Y50; K. pneumoniae Y-50; 10^6 cells/ml; 20 hours, 37° C.; read-out: minimum inhibitory concentration (MIC)
Experimental: as §1, §3, §2

Ser. marcescens W-8 = conditions: Serratia marcescens, W8; Ser. marcescens W-8; 10^6 cells/ml; 20 hours, 37° C.; read-out: minimum inhibitory concentration (MIC)
Experimental: as §1, §3, §2

[2] = system: Acinetobacter caloaceticus A-6; conditions: A6; Acinetobacter caloaceticus A-6; 10^6 cells/ml; 20 hours, 37° C.; read-out: minimum inhibitory concentration (MIC)
Experimental: as §1, §3, §2

Prot. vulgaris GN-76 = conditions: Proteus vulgaris, GN76; Prot. vulgaris GN-76; 10^6 cells/ml; 20 hours, 37° C.; read-out: minimum inhibitory concentration (MIC)
Experimental: as §1, §3, §2

Ps. aeruginosa IFO-3445 = conditions: Pseudomonas aeruginosa, IFO3445; Ps. aeruginosa IFO-3445; 10^6 cells/ml; 20 hours, 37° C.; read-out: minimum inhibitory concentration (MIC)
Experimental: as §1, §3, §2

Citrobacter N-7 = conditions: N7; Citrobacter N-7; 10^6 cells/ml; 20 hours, 37° C.; read-out: minimum inhibitory concentration (MIC)
Experimental: as §1, §3, §2

E. coli NIHJ = conditions: Escherichia coli; E. coli NIHJ; 10^6 cells/ml; 20 hours, 37° C.; read-out: minimum inhibitory concentration (MIC)
Experimental: as §1, §3, §2

Ser. marcescens IID620 = conditions: Serratia marcescens; Ser. marcescens IID620; 10^6 cells/ml; 20 hours, 37° C.; read-out: minimum inhibitory concentration (MIC)
Experimental: as §1, §3, §2

Ps. aeruginosa S-68 = conditions: Pseudomonas aeruginosa, S68; Ps. aeruginosa S-68; 10^6 cells/ml; 20 hours, 37° C.; read-out: minimum inhibitory concentration (MIC)
Experimental: as §1, §3, §2

[3] = system: S. aureus F-19 (Penicillinase-producing bacterium); conditions: Staphylococcus aureus; S. aureus F-19; 10^6 cells/ml; 20 hours, 37° C.; read-out: minimum inhibitory concentration (MIC)
Experimental: as §1, §3, §2

SMILES	MIC (Ser. marcescens W-35)	MIC (Ent. cloacae IID977)	MIC [1]	MIC (Klebsiella spp. Y-72)	MIC (K. pneumoniae Y-50)	MIC (Ser. marcescens W-8)	MIC [2]	MIC (Prot. vulgaris GN-76)	MIC (Ps. aeruginosa IFO-3445)	MIC (Citrobacter N-7)	MIC (E. coli NIHJ)	MIC (Ser. marcescens IID620)	MIC (Ps. aeruginosa S-68)	MIC [3]
CCN1CCN(C(=O)NC(C(=O)N[C@]2(OC)C(=O)N3C(C(=O)O)=C(CSc4nnnn4CC(C)=O)CS[C@@H]32)c2cccs2)C(=O)C1=O (stereo partly drawn)	25 µg/mL (≈ 35.3 µM)	50 µg/mL (≈ 70.6 µM)	25 µg/mL (≈ 35.3 µM)	6.25 µg/mL (≈ 8.83 µM)	0.39 µg/mL (≈ 0.551 µM)	50 µg/mL (≈ 70.6 µM)	25 µg/mL (≈ 35.3 µM)	0.78 µg/mL (≈ 1.1 µM)	25 µg/mL (≈ 35.3 µM)	6.25 µg/mL (≈ 8.83 µM)	≤ 0.1 µg/mL	0.2 µg/mL (≈ 0.283 µM)	25 µg/mL (≈ 35.3 µM)	6.25 µg/mL (≈ 8.83 µM)
C=Cn1nnnc1SCC1=C(C(=O)O)N2C(=O)[C@](NC(=O)C(NC(=O)N3CCN(CC)C(=O)C3=O)c3cccs3)(OC)[C@H]2SC1 (stereo partly drawn)	12.5 µg/mL (≈ 18.4 µM)	25 µg/mL (≈ 36.9 µM)	12.5 µg/mL (≈ 18.4 µM)	6.25 µg/mL (≈ 9.22 µM)	0.39 µg/mL (≈ 0.575 µM)	25 µg/mL (≈ 36.9 µM)	12.5 µg/mL (≈ 18.4 µM)	0.78 µg/mL (≈ 1.15 µM)	25 µg/mL (≈ 36.9 µM)	3.13 µg/mL (≈ 4.62 µM)	≤ 0.1 µg/mL	0.2 µg/mL (≈ 0.295 µM)	12.5 µg/mL (≈ 18.4 µM)	3.13 µg/mL (≈ 4.62 µM)
CCN1CCN(C(=O)NC(C(=O)N[C@]2(OC)C(=O)N3C(C(=O)O)=C(CSc4nnnn4CC(N)=O)CS[C@@H]32)c2ccco2)C(=O)C1=O (stereo partly drawn)	6.25 µg/mL (≈ 9.02 µM)	25 µg/mL (≈ 36.1 µM)			0.2 µg/mL (≈ 0.289 µM)			1.56 µg/mL (≈ 2.25 µM)	12.5 µg/mL (≈ 18 µM)		≤ 0.1 µg/mL	≤ 0.1 µg/mL		6.25 µg/mL (≈ 9.02 µM)
CCN1CCN(C(=O)NC(C(=O)N[C@]2(OC)C(=O)N3C(C(=O)O)=C(CSc4nnc(C)s4)CS[C@@H]32)c2csc(N)n2)C(=O)C1=O (stereo partly drawn)							25 µg/mL (≈ 35.8 µM)	3.13 µg/mL (≈ 4.49 µM)	25 µg/mL (≈ 35.8 µM)		≤ 0.1 µg/mL	0.39 µg/mL (≈ 0.559 µM)		6.25 µg/mL (≈ 8.96 µM)
CCN1CCN(C(=O)NC(C(=O)N[C@]2(OC)C(=O)N3C(C(=O)O)=C(CSc4nnnn4CCO)CS[C@@H]32)c2cccs2)C(=O)C1=O (stereo partly drawn)	12.5 µg/mL (≈ 18 µM)	25 µg/mL (≈ 35.9 µM)	12.5 µg/mL (≈ 18 µM)	1.56 µg/mL (≈ 2.24 µM)	0.39 µg/mL (≈ 0.561 µM)	50 µg/mL (≈ 71.9 µM)	6.25 µg/mL (≈ 8.98 µM)	0.39 µg/mL (≈ 0.561 µM)	12.5 µg/mL (≈ 18 µM)	1.56 µg/mL (≈ 2.24 µM)	≤ 0.1 µg/mL	0.2 µg/mL (≈ 0.287 µM)	12.5 µg/mL (≈ 18 µM)	3.13 µg/mL (≈ 4.5 µM)
CCN1CCN(C(=O)NC(C(=O)N[C@]2(OC)C(=O)N3C(C(=O)O)=C(CSc4nnnn4CC(C)=NO)CS[C@@H]32)c2cccs2)C(=O)C1=O (stereo partly drawn)	25 µg/mL (≈ 34.6 µM)	25 µg/mL (≈ 34.6 µM)	50 µg/mL (≈ 69.2 µM)	6.25 µg/mL (≈ 8.65 µM)	0.78 µg/mL (≈ 1.08 µM)	50 µg/mL (≈ 69.2 µM)	12.5 µg/mL (≈ 17.3 µM)	0.78 µg/mL (≈ 1.08 µM)	25 µg/mL (≈ 34.6 µM)	6.25 µg/mL (≈ 8.65 µM)	≤ 0.1 µg/mL	0.2 µg/mL (≈ 0.277 µM)	12.5 µg/mL (≈ 17.3 µM)	3.13 µg/mL (≈ 4.33 µM)

Further molecules by falling MIC (Prot. vulgaris GN-76), results first:

MIC (Ser. marcescens W-35)	MIC (Ent. cloacae IID977)	MIC [1]	MIC (Klebsiella spp. Y-72)	MIC (K. pneumoniae Y-50)	MIC (Ser. marcescens W-8)	MIC [2]	MIC (Prot. vulgaris GN-76)	MIC (Ps. aeruginosa IFO-3445)	MIC (Citrobacter N-7)	MIC (E. coli NIHJ)	MIC (Ser. marcescens IID620)	MIC (Ps. aeruginosa S-68)	MIC [3]	SMILES
50 µg/mL (≈ 75.6 µM)	25 µg/mL (≈ 37.8 µM)	25 µg/mL (≈ 37.8 µM)	12.5 µg/mL (≈ 18.9 µM)	0.78 µg/mL (≈ 1.18 µM)	100 µg/mL (≈ 151 µM)	6.25 µg/mL (≈ 9.45 µM)	3.13 µg/mL (≈ 4.73 µM)	12.5 µg/mL (≈ 18.9 µM)	6.25 µg/mL (≈ 9.45 µM)	≤ 0.1 µg/mL	0.78 µg/mL (≈ 1.18 µM)	25 µg/mL (≈ 37.8 µM)	3.13 µg/mL (≈ 4.73 µM)	CCN1CCN(C(=O)NC(C(=O)N[C@]2(OC)C(=O)N3C(C(=O)O)=C(CSc4nnnn4C)CS[C@@H]32)C2=CCC=CC2)C(=O)C1=O (stereo partly drawn)
						12.5 µg/mL (≈ 17.2 µM)	1.56 µg/mL (≈ 2.15 µM)	12.5 µg/mL (≈ 17.2 µM)		≤ 0.1 µg/mL	≤ 0.1 µg/mL		3.13 µg/mL (≈ 4.32 µM)	CCN1CCN(C(=O)NC(C(=O)N[C@]2(OC)C(=O)N3C(C(=O)O)=C(CSc4nnnn4CC(N)=O)CS[C@@H]32)c2csc(N)n2)C(=O)C1=O (stereo partly drawn)
